Data from US20240122180A1, “FUNGICIDAL HALOMETHYL KETONES AND HYDRATES AND THEIR MIXTURES” (FMC Corporation, priority 2020, published 2024).

Assays:
[1] = test system: Phakopsora pachyrhizi (the causal agent of Asian soybean rust); assay: Test A: preventive spray on soybean seedlings, visual disease rating (100 = 100% control; * 50 ppm, ** 10 ppm, *** 250 ppm); type: in vivo; settings: 100 = 100% disease control
Source text: (§1) General protocol for preparing test suspensions for Tests A-E: the test compounds were first dissolved in acetone in an amount equal to 3% of the final volume and then suspended at the desired concentration (in ppm) in acetone and purified water (50/50 mix by volume) containing 250 ppm of the surfactant […] (polyhydric alcohol esters). The resulting test suspensions were then used in Tests A-E.
(§2) The test solution was sprayed to the point of run-off on soybean seedlings. The following day the seedlings were inoculated with a spore suspension of Phakopsora pachyrhizi (the causal agent of Asian soybean rust) and incubated in a saturated atmosphere at 22° C. for 24 h, and then moved to a growth chamber at 22° C. for 8 days, after which time visual disease ratings were made.
(§3) Results for Tests A-E are given in Table A. In the Table, a rating of 100 indicates 100% disease control and a rating of 0 indicates no disease control (relative to the controls). An asterisk “*” or a double asterisk “**” or a triple asterisk “***” next to the rating value indicates a 50 ppm, 10 ppm and 250 ppm test suspension was used, respectively. A dash (-) indicates the compound was not tested.

[2] = test system: Puccinia recondita f. sp. tritici (the causal agent of wheat leaf rust); assay: Test B: preventive spray on wheat seedlings, disease rating (100 = 100% control; * 50 ppm, ** 10 ppm, *** 250 ppm); type: in vivo; settings: 100 = 100% disease control; for pest or weed control at 10 ppm / pest or weed control at 50 ppm: Puccinia recondita
Source text: as §1
as §2, with “wheat” for “soybean”, “Puccinia recondita f. sp. tritici” for “Phakopsora pachyrhizi”, “wheat leaf” for “Asian soybean”, “20°” for “22°”, “6” for “8”, “time” for “time visual”
as §3

[3] = 10 ppm test suspension, 0 = no control
[4] = 50 ppm test suspension, 0 = no control
[5] = 10 ppm test suspension, soybean seedlings
[6] = 10 ppm test suspension, wheat seedlings
[7] = 50 ppm test suspension, wheat seedlings

What does the source list for CCOC(=O)c1cnn(CCCc2cccc(O/C=C(\OCC)C(F)(F)F)c2)c1 [compound 421]?
Test A disease control rating [1, 3]: 0%; Test B disease control rating [2, 3]: 0%

What does the source list for CCOC(=COc1ccc(CCl)cc1)C(F)(F)F [compound 434]?
Test A disease control rating [1, 4]: 0%; Test B disease control rating [2, 4]: 0%

How did the “Test A disease control rating” value [1, 4] turn out when Cc1ccc(OCC(O)(O)C(F)(F)F)cc1 [compound 396] was run?
Its value is 31%.

And the “Test B disease control rating” value [2, 4]?
The value was 19%.

How did the “Test A disease control rating” value [1, 5] turn out when CCOC(=O)c1cnn(Cc2ccc(COCC3(C(F)(F)F)OCCO3)cc2)c1 [compound 141] was run?
The value was 0%.

And the “Test B disease control rating” value [2, 6]?
Its value is 0%.

CCNC(=O)N1CC(c2ccc(OC=C(OCC)C(F)(F)F)cc2)C1 [compound 412] was tested. Which “Test A disease control rating” value [1, 4] did it give?
Its value is 100%.

And the “Test B disease control rating” value [2, 4]?
The value was 0%.

CCO/C(=C\Oc1ccc(Cn2cc(C(=O)OC)c3ccccc32)cc1)C(F)(F)F [compound 91] was tested. Which “Test A disease control rating” value [1, 5] did it give?
The value was 0%.

What about the “Test B disease control rating” value [2, 6] of the same molecule?
The value was 0%.

CCOC(=O)c1cnn(Cc2ccc(OCC3(C(F)(F)F)NCCO3)cc2)c1 (stereo not drawn) [compound 21] was tested. Which “Test A disease control rating” value [1, 5] did it give?
Its value is 84%.

What about the “Test B disease control rating” value [2, 6] of the same molecule?
The value was 23%.

How did the “Test A disease control rating” value [1, 3] turn out when CCOC(=COc1ccc(CN2CCC(C#N)CC2)cc1)C(F)(F)F [compound 311] was run?
The value was 0%.

And the “Test B disease control rating” value [2, 3]?
The value was 0%.

N#CCOC(=O)c1cnn(Cc2ccc(OCC3(C(F)(F)F)OCCO3)cc2)c1 [compound 172] was tested. Which “Test A disease control rating” value [1, 5] did it give?
Its value is 100%.

What about the “Test B disease control rating” value [2, 6] of the same molecule?
The value was 0%.

For CCOC(=O)c1cnn(COc2ccc(O/C=C(\OCC)C(F)(F)F)cc2F)c1 [compound 425], which pest or weed control at 10 ppm ([1]; Phakopsora pachyrhizi, 10 ppm test suspension, 0 = no control) is on record?
Its pest or weed control at 10 ppm is 100%.

And the pest or weed control at 10 ppm [2, 3]?
The pest or weed control at 10 ppm was 0%.

Which “Test A disease control rating” value [1, 3] does the source give for CCO/C(=C\Oc1cccc(Cn2cc(C(=O)OCCOC(F)(F)F)cn2)c1)C(F)(F)F [compound 352] here?
The value was 100%.

And the “Test B disease control rating” value [2, 3]?
The value was 0%.

CCOC(=O)c1cnn(C(C)c2ccc(OCC3(C(F)(F)F)OCCO3)cc2)c1 (racemic) [compound 26] was tested. Which “Test A disease control rating” value [1, 5] did it give?
The value was 99%.

What about the “Test B disease control rating” value [2, 6] of the same molecule?
The value was 0%.

With CCOC(=COc1ccc(COC)cc1)C(F)(F)F [compound 433] as the molecule, how does the “Test A disease control rating” value [1, 4] read?
The value was 0%.

And the “Test B disease control rating” value [2, 4]?
The value was 0%.

Which results are given for CN(C)C(=O)C1=NOC(c2ccc(OCC3(C(F)(F)F)OCCO3)cc2)C1 (stereo not drawn) [compound 22]?
Test A disease control rating [1, 5]: 38%; Test B disease control rating [2, 6]: 0%

Which results are given for C=CCO/C(=C\Oc1ccc(Cn2cc(C(=O)OCC)cn2)cc1)C(F)(F)F [compound 55]?
Test A disease control rating [1, 5]: 0%; Test B disease control rating [2, 6]: 0%

Which “Test A disease control rating” value [1, 4] does the source give for CCOC(=O)c1cnn(Cc2cc(O/C=C(\OCC)C(F)(F)F)ccc2F)c1 [compound 302] here?
The value was 99%.

And the “Test B disease control rating” value [2, 4]?
Its value is 0%.

How did the “Test A disease control rating” value [1, 4] turn out when CCOC(=O)c1cnn(Cc2ccc(OC)c(O/C=C(\OCC)C(F)(F)F)c2)c1 [compound 408] was run?
The value was 44%.

And the “Test B disease control rating” value [2, 4]?
Its value is 0%.

With CCO/C(=C\Oc1ccc(CN2CCCC2=O)cc1)C(F)(F)F [compound 224] as the molecule, how does the “Test A disease control rating” value [1, 5] read?
The value was 0%.

What about the “Test B disease control rating” value [2, 6] of the same molecule?
Its value is 0%.

COC(=O)c1cnn(Cc2ccc(OCC3(C(F)(F)F)OCCO3)cc2)c1 [compound 13] was tested. Which “Test A disease control rating” value [1, 5] did it give?
The value was 99%.

And the “Test B disease control rating” value [2, 6]?
Its value is 0%.

How did the “Test A disease control rating” value [1, 5] turn out when CCCNC(=O)c1ccc(O/C=C(\OCC)C(F)(F)F)cc1 [compound 104] was run?
The value was 0%.

What about the “Test B disease control rating” value [2, 6] of the same molecule?
Its value is 80%.

With CCOC(=O)c1ccc(O/C=C(\OCC)C(F)(F)F)cc1 [compound 95] as the molecule, how does the “Test A disease control rating” value [1, 5] read?
Its value is 0%.

And the “Test B disease control rating” value [2, 6]?
The value was 0%.

Which “Test A disease control rating” value [1, 5] does the source give for CCOC(=O)C=CCOc1ccc(O/C=C(\OCC)C(F)(F)F)cc1 [compound 96] here?
Its value is 13%.

What about the “Test B disease control rating” value [2, 6] of the same molecule?
The value was 0%.

Which results are given for CCO/C(=C\Oc1ccc(C(=O)NC(C)C)cc1)C(F)(F)F [compound 101]?
Test A disease control rating [1, 5]: 0%; Test B disease control rating [2, 6]: 0%

How did the “Test A disease control rating” value [1, 5] turn out when CCO/C(=C\Oc1ccc(Cn2nc(C)cc2C)cc1)C(F)(F)F [compound 152] was run?
Its value is 0%.

And the “Test B disease control rating” value [2, 6]?
Its value is 0%.

How did the “Test A disease control rating” value [1, 5] turn out when CCO/C(=C\Oc1ccc(Cn2cc(C(F)(F)F)cn2)cc1)C(F)(F)F [compound 182] was run?
The value was 0%.

What about the “Test B disease control rating” value [2, 6] of the same molecule?
The value was 0%.

With O=[N+]([O-])c1cccc(OCC2(C(F)(F)F)OCCO2)c1 [compound 165] as the molecule, how does the pest or weed control at 10 ppm [2, 6] read?
Its pest or weed control at 10 ppm is 0%.

O=C(OCC1CC1)c1cnn(Cc2ccc(OCC3(C(F)(F)F)OCCO3)cc2)c1 [Compound 127, cyclopropylmethyl 1-[[4-[[2-(trifluoromethyl)-1,3-dioxolan-2-yl]methoxy]phenyl]methyl]-1H-pyrazole-4-carboxylate] was tested. Which pest or weed control at 10 ppm [2, 6] did it give?
Its pest or weed control at 10 ppm is 0%.

For CCOC(=O)c1cnn(CCc2ccc(O/C=C(\OCC)C(F)(F)F)cc2)c1 [Compound 132, ethyl 1-[2-[4-[[(1Z)-2-ethoxy-3,3,3-trifluoro-1-propen-1-yl]oxy]phenyl]ethyl]-1H-pyrazole-4-carboxylate], which pest or weed control at 10 ppm [2, 6] is on record?
Its pest or weed control at 10 ppm is 0%.

Which “Test A disease control rating” value [1, 4] does the source give for CCO/C(=C\Oc1cccc(Cn2cc(C(=O)NC3CC3)cn2)c1)C(F)(F)F [compound 391] here?
Its value is 0%.

CCOC(=O)c1cnn(Cc2ccc(O/C=C(\OCC)C(F)(F)F)c(F)c2)c1 [Compound 262, ethyl 1-[[4-[[(1Z)-2-ethoxy-3,3,3-trifluoro-1-propen-1-yl]oxy]-3-fluorophenyl]methyl]-1H-pyrazole-4-carboxylate] was tested. Which pest or weed control at 10 ppm [2, 3] did it give?
The pest or weed control at 10 ppm was 0%.

How did the pest or weed control at 10 ppm [2, 3] turn out when CCCOC(=O)c1cnn(Cc2cccc(O/C=C(\OCC)C(F)(F)F)c2)c1 [Compound 331, propyl 1-[[3-[[(1Z)-2-ethoxy-3,3,3-trifluoro-1-propen-1-yl]oxy]phenyl]methyl]-1H-pyrazole-4-carboxylate] was run?
Its pest or weed control at 10 ppm is 0%.

Which pest or weed control at 10 ppm [2, 6] does the source give for CC(C)COC(=O)c1cnn(Cc2ccc(OCC3(C(F)(F)F)OCCO3)cc2)c1 [Compound 126, 2-methylpropyl 1-[[4-[[2-(trifluoromethyl)-1,3-dioxolan-2-yl]methoxy]phenyl]methyl]-1H-pyrazole-4-carboxylate] here?
Its pest or weed control at 10 ppm is 0%.

Which pest or weed control at 10 ppm [2, 3] does the source give for CCOC(=O)c1cnn(COCc2ccc(O/C=C(\OCC)C(F)(F)F)cc2)c1 [Compound 297, ethyl 1-[[4-[[(1Z)-2-ethoxy-3,3,3-trifluoro-1-propen-1-yl]oxy]phenylmethoxy]methyl]-1H-pyrazole-4-carboxylate] here?
Its pest or weed control at 10 ppm is 0%.

With CCOC(=O)c1cnn(Cc2cccc(OCC3(C(F)(F)F)OCCO3)c2)c1 [compound 146] as the molecule, how does the pest or weed control at 50 ppm [2, 7] read?
Its pest or weed control at 50 ppm is 0%.

With COCCOC(=O)c1cnn(Cc2ccc(OCC3(C(F)(F)F)OCCO3)cc2)c1 [Compound 162, 2-methoxyethyl 1-[[4-[[2-(trifluoromethyl)-1,3-dioxolan-2-yl]methoxy]phenyl]methyl]-1H-pyrazole-4-carboxylate] as the molecule, how does the pest or weed control at 10 ppm [2, 6] read?
Its pest or weed control at 10 ppm is 0%.

Which pest or weed control at 10 ppm [2, 6] does the source give for CCOC(=O)c1ccn(Cc2ccc(O/C=C(\OCC)C(F)(F)F)cc2)n1 [Compound 231, ethyl 1-[[4-[[(1Z)-2-ethoxy-3,3,3-trifluoro-1-propen-1-yl]oxy]phenyl]methyl]-1H-pyrazole-3-carboxylate] here?
The pest or weed control at 10 ppm was 0%.

CCOC(=O)c1cnn(Cc2cccc(OCC(O)(O)C(F)(F)F)c2)c1 [Compound 266, ethyl 1-[[3-(3,3,3-trifluoro-2,2-dihydroxypropoxy)phenyl]methyl]-1H-pyrazole-4-carboxylate] was tested. Which pest or weed control at 50 ppm [2, 4] did it give?
Its pest or weed control at 50 ppm is 74%.

For CCO/C(=C\Oc1cccc(Cn2cc(C(=O)OC)cn2)c1)C(F)(F)F [Compound 330, methyl 1-[[3-[[(1Z)-2-ethoxy-3,3,3-trifluoro-1-propen-1-yl]oxy]phenyl]methyl]-1H-pyrazole-4-carboxylate], which pest or weed control at 10 ppm [2, 3] is on record?
Its pest or weed control at 10 ppm is 0%.

For CC#CCOC(=O)c1cnn(Cc2ccc(OCC3(C(F)(F)F)OCCO3)cc2)c1 [Compound 163, 2-butyn-1-yl 1-[[4-[[2-(trifluoromethyl)-1,3-dioxolan-2-yl]methoxy]phenyl]methyl]-1H-pyrazole-4-carboxylate], which pest or weed control at 10 ppm [2, 6] is on record?
Its pest or weed control at 10 ppm is 0%.

Which pest or weed control at 10 ppm [2, 3] does the source give for O=Cc1cccc(OCC(O)(O)C(F)(F)F)c1 [compound 305] here?
Its pest or weed control at 10 ppm is 0%.

How did the “Test A disease control rating” value [1, 4] turn out when CCO/C(=C\Oc1cccc(Cn2cc(C(=O)NC3CCCC3)cn2)c1)C(F)(F)F [compound 390] was run?
Its value is 0%.

With N#CCCCOC(=O)c1cnn(Cc2ccc(OCC3(C(F)(F)F)OCCO3)cc2)c1 [Compound 171, 3-cyanopropyl 1-[[4-[[2-(trifluoromethyl)-1,3-dioxolan-2-yl]methoxy]phenyl]methyl]-1H-pyrazole-4-carboxylate] as the molecule, how does the pest or weed control at 10 ppm [2, 6] read?
The pest or weed control at 10 ppm was 0%.

N#Cc1cccc(OCC2(C(F)(F)F)OCCO2)c1 [compound 147] was tested. Which pest or weed control at 50 ppm [2, 7] did it give?
Its pest or weed control at 50 ppm is 0%.

With CCOC(=O)c1cnn(Cc2ccc(OCC3(C(F)(F)F)OCC(C)(C)O3)cc2)c1 (stereo not drawn) [Compound 12, ethyl 1-[[4-[[4,4-dimethyl-2-(trifluoromethyl)-1,3-dioxolan-2-yl]methoxy]-phenyl]methyl]-1H-pyrazole-4-carboxylate] as the molecule, how does the pest or weed control at 10 ppm [2, 6] read?
The pest or weed control at 10 ppm was 0%.
